US9609884B2, “Anti-fatigue agent” (Suntory Holdings Limited, priority 2007, dated 2017)

Experiments:
Type in all cases: in vivo
[1] = test system: Sprague Dawley male rats under exercise stress; experiment: Forced exercise test, sesamin given after treadmill exercise stress (recovery from fatigue); details: 180 mg/kg oral in olive oil after 3-hr treadmill exercise stress; versus control group under exercise stress
Procedure: The second thing to do is measure the motor activity in a forced exercise test. Rats administered with the test substance are forced to have exercise on a treadmill and, thereafter, the motor activity of the animal in the dark period is measured. Since this is an animal model for fatigue from exercise (physical fatigue), an increase in the motor activity as achieved by administering it with the test substance means the verification of resistance to fatigue.
The test sample used in Example 2 was the same sesamin as in Example 1.
Sprague Dawley male rats (6-week old) were acclimatized in a test environment for a week and the animals that had shown normal growth were subjected to the test. One day before the start of the test, the rats were divided into five groups each consisting of eight animals. On the day of the test, all animals were starved from the morning and one group of rats was assigned as a resting group that was not to be subjected to exercise stress. […] Thereafter, the animals were transferred to an automatograph (Supermex manufactured by MUROMACHI KIKAI CO., LTD.) and their motor activity in the dark period was measured.

[2] = test system: Sprague Dawley male rats under exercise stress; experiment: Forced exercise test, sesamin-mixed feed for a week before treadmill exercise stress (prevention of fatigue); details: versus exercise fatigue control group
Procedure: The second thing to do is measure the motor activity in a forced exercise test. Rats administered with the test substance are forced to have exercise on a treadmill and, thereafter, the motor activity of the animal in the dark period is measured. Since this is an animal model for fatigue from exercise (physical fatigue), an increase in the motor activity as achieved by administering it with the test substance means the verification of resistance to fatigue. The test sample used in Example 3 was the same sesamin as in Example 1. Sprague Dawley male rats (10-week old) were acclimatized in a test environment for a week and the animals that had shown normal growth were subjected to the test. The rats were divided into three groups each consisting of eight animals. Then, AI[…] was mixed with sesamin to give final concentrations of 0, 0.02, and 0.1% (w/w) to prepare feeds and the rats were let to ingest the respective feeds ad libitum for a week. Thereafter, all animals were given a 3-hr exercise stress by means of a treadmill-type forced walking apparatus (MK-680 manufactured by MUROMACHI KIKAI CO., LTD.) After the end of exercise stress application, the animals were transferred to an automatograph (Supermex manufactured by MUROMACHI KIKAI CO., LTD.) and their motor activity in the dark period was measured.

[3] = test system: Balb/c male mice kept under water immersion stress; experiment: Water immersion sleep disturbed test (forced swimming under weight load); details: once a day for two days during water immersion, weight 8% of body weight
Procedure: The first thing to do is measure the swimming time in a water immersion sleep disturbed test. Mice that have been kept in an environment such as water immersion where they are unable to have a good sleep or take a rest position so they cannot have a physical or mental rest are forced to swim under a weight load and the time it takes for them to have their nose sunk in the water for a period of ten seconds or longer is measured to confirm the degree of their fatigue. Since this is an animal model for physical or mental fatigue, an extension of the swimming time as achieved by administering it with the test substance means the verification of resistance to fatigue, as exemplified by relief of physical and/or mental fatigue, maintenance of physical vigor in the tired model (increase in body strength), or improvement of stamina. A sesamin/episesamin mixture (sesamin:episesamin=1:1 in weight ratio) was used as a test sample. Effectiveness against fatigue was evaluated by the following partial modification of the method of Tanaka et al. (Neuroscience, Let. 352, 159-162, 2003). The test animals Balb/c male mice (8-week old) were divided into five groups, each consisting of 12 animals and having the same average body weight. Four of those five groups were water immersion groups, which were kept in breeding cages, not on paper chips but in tap water (23° C.) supplied to a depth of 7 mm, thereby disturbing sleep of the mice. […] After two days, each mouse was fitted with a weight at the tail which corresponded to 8% of its body weight, and was allowed to swim in a water tank of 18 cm^φ that was filled with water to a depth of 30 cm; the time it took for each mouse to have its nose sunk in water for a period of at least 10 seconds was measured. The mice in the groups kept under water immersion stress could swim for a shorter period than the mice in the normally kept group and the degree by which the shortening of the swimming time could be controlled in the sesamin administered groups was measured to evaluate the effectiveness of sesamin against fatigue. […]

[4] = test system: Balb/c male mice kept under water immersion stress; experiment: Measuring fatigue-causing substances (ketone bodies) in the blood of mice under water immersion stress; details: 50 mg/kg oral once a day for three days during water immersion; versus control group under water immersion stress (olive oil)
Excerpt: The third thing to do is measure the amount of fatigue-causing substances in the blood. This involves administering the test substance to check to see if it has an action for controlling an increase in the blood concentration of fatigue-causing substances under a physical or mental stress. Although no substances have been identified to be causative of fatigue, one class of candidates may be ketone bodies (collectively referring to acetoacetate, 3-hydroxybutyrate, and acetone). Ketone bodies are known to be metabolites that are produced when free fatty acids […] from the fat tissue on account of lowered glucose availability undergo β-oxidation. If the production of ketone bodies is enhanced beyond their utilization in the extrahepatic tissues, ketone bodies accumulate in the blood, leading to ketosis. Actoacetate and 3-hydroxybutyrate are moderately strong acids, so if ketone bodies accumulate in amounts exceeding the buffering action of the living body, the blood becomes acidic, causing a condition known as acidosis which, in turn, produces a feeling of weariness (Takanori Yamamoto, Igaku no ayumi (Progress in Medicine), Vol. 204, No. 5:325-329, 2003). […]
After three days, blood was drawn from each mouse and the ketone bodies in the serum were measured by the enzyme method with a biochemical automatic analyzer (Model 7070 of Hitachi, Ltd.)

Question: `c1cc2c(cc1[C@H]1OC[C@H]3[C@@H]1CO[C@@H]3c1ccc3c(c1)OCO3)OCO2` [sesamin] was tested. Which “motor activity in the dark period” value [1] did it give?
Answer: an increase in the motor activity was confirmed

Question: What about the “motor (physical) activity in the dark period” value ([2]; mixed feed containing 0.02% (w/w) sesamin ad libitum for a week before 3-hr exercise stress) of the same compound?
Answer: almost the same physical activity

Question: What about the “motor (physical) activity in the dark period” value ([2]; mixed feed containing 0.1% (w/w) sesamin (about 80 mg/kg) ad libitum for a week before 3-hr exercise stress) of the same compound?
Answer: enhanced physical activity

Question: What about the “swimming time (control group kept under water immersion stress taken as 100%)” value ([3]; 12.5 mg/kg oral) of the same compound?
Answer: 150%

Question: What about the “swimming time (control group kept under water immersion stress taken as 100%)” value ([3]; 50 mg/kg oral) of the same compound?
Answer: 300%

Question: And the “swimming time (control group kept under water immersion stress taken as 100%)” value ([3]; 200 mg/kg oral)?
Answer: 133%

Question: What about the “concentration of ketone bodies in the serum” value [4] of the same compound?
Answer: significant control of the increase in the concentration of ketone bodies
